From US8952024B2, “Herbicidal pyrimidone derivatives” (E I du Pont de Nemours and Company, priority 2009, dated 2015)

Tests used:
Assay type in all cases: in vivo
[1] = system: winter barley (Hordeum vulgare); experiment: Test B postemergence plant response; conditions: for Barley plant response rating (0 to 100 scale): 62 g ai/ha, 0 is no effect
How it was run: (§1)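 Plants grown in peat/vermiculite medium were sprayed postemergence at 2–18 cm height (1- to 4-leaf stage). After 13–15 days in the greenhouse, response was rated visually against untreated controls on a 0–100 scale (0 no effect, 100 complete control).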

[2] = system: chickweed (Stellaria media); experiment: Test B postemergence plant response
How it was run: as §1

[3] = system: canarygrass (Phalaris minor); experiment: Test B postemergence plant response
How it was run: as §1

[4] = system: windgrass (Apera spica-venti); experiment: Test B postemergence plant response
How it was run: as §1

[5] = system: large crabgrass (Digitaria sanguinalis); experiment: Test A pre-/postemergence plant response
How it was run: (§2)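 Visually rated 0–100 injury (100 = complete control) versus untreated plants, ~10 days in greenhouse. Application pre- (soil spray, loam/sand) and postemergence (2–10 cm, 1–2 leaf stage), same timepoint.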

[6] = system: wheat (Triticum aestivum); experiment: Test A pre-/postemergence plant response
How it was run: as §2

[7] = system: morningglory (Ipomoea spp.); experiment: Test A pre-/postemergence plant response
How it was run: as §2

corn (Zea mays) = experiment: Test A pre-/postemergence plant response
How it was run: as §2

[8] = system: giant foxtail (Setaria faberii); experiment: Test A pre-/postemergence plant response
How it was run: as §2

[9] = system: velvetleaf (Abutilon theophrasti); experiment: Test A pre-/postemergence plant response
How it was run: as §2

[10] = postemergence, 100 is complete control, 13 to 15 days
[11] = Postemergence, 31 g ai/ha, 0 to 100 scale (0 no effect, 100 complete control)
[12] = Postemergence, 125 g ai/ha, scale 0 to 100 (0 no effect, 100 complete control)
[13] = Postemergence, 250 g ai/ha, scale 0 to 100 (0 no effect, 100 complete control), 13 to 15 days
[14] = Postemergence, 125 g ai/ha, 0 to 100 scale where 0 is no effect and 100 is complete control
[15] = Postemergence, 500 g ai/ha, visual injury, 0 to 100 scale (0 no effect, 100 complete control), approx. ten days
[16] = Preemergence, 125 g ai/ha, 0 to 100 scale, 0 = no effect, 100 = complete control
[17] = Preemergence, 500 g ai/ha, 0 to 100 scale, 0 = no effect, 100 = complete control
[18] = 31 g ai/ha, postemergence, scale 0 to 100, 0 is no effect, 100 is complete control
[19] = Postemergence, 125 g ai/ha, visual rating after 13 to 15 days, scale 0 (no effect) to 100 (complete control)
[20] = Postemergence, 250 g ai/ha, scale 0 to 100 (0 no effect, 100 complete control)
[21] = 62 g ai/ha, postemergence, 0 is no effect, 100 is complete control, 13 to 15 days
[22] = Postemergence, 500 g ai/ha, 0 to 100 scale, 0 = no effect, 100 = complete control, approx. ten days
[23] = Preemergence, 500 g ai/ha, visual injury, 0 to 100 scale (0 no effect, 100 complete control), approx. ten days

## Cc1ccc(-n2c(-c3cc(F)cc(F)c3)ncc(C(=O)C3=C(O)CCCC3=O)c2=O)cc1 [Compound 162]
[1]; [10]
  Barley plant response rating (0 to 100 scale): 35
[1]; [11]
  Plant response rating, Barley: 30
[1]; [12]
  Plant response rating, Barley: 50
[1]; [13]
  Plant response rating, Barley: 85
[2]; [11]
  Plant response rating, Chickweed: 90
[2]; [12]
  Plant response rating, Chickweed: 100
[2]; [13]
  Plant response rating, Chickweed: 100
[3]; [11]
  Plant response rating, Canarygrass: 40
[3]; [12]
  Plant response rating, Canarygrass: 90
[3]; [13]
  Plant response rating, Canarygrass: 90
[4]; [11]
  Plant response rating, Windgrass: 40
[4]; [12]
  Plant response rating, Windgrass: 60
[4]; [13]
  Plant response rating, Windgrass: 80
[5]; [14]
  Plant response rating, Crabgrass, Large: 80
[5]; [15]
  Crabgrass, Large plant response rating: 100
[5]; [16]
  Plant response rating, Crabgrass, Large: 90
[5]; [17]
  Plant response rating, Crabgrass, Large: 100
[6]; [14]
  Plant response rating, Wheat: 30
[6]; [15]
  Wheat plant response rating: 50
[6]; [16]
  Plant response rating, Wheat: 0
[6]; [17]
  Plant response rating, Wheat: 50
[7]; [14]
  Plant response rating, Morningglory: 100
[7]; [15]
  Morningglory plant response rating: 100
[7]; [16]
  Plant response rating, Morningglory: 0
[7]; [17]
  Plant response rating, Morningglory: 80
Corn (Zea mays); [14]
  Plant response rating, Corn: 0
Corn (Zea mays); [15]
  Corn plant response rating: 50
Corn (Zea mays); [16]
  Plant response rating, Corn: 0
Corn (Zea mays); [17]
  Plant response rating, Corn: 0
[8]; [14]
  Plant response rating, Foxtail, Giant: 70
[8]; [15]
  Foxtail, Giant plant response rating: 100
[8]; [16]
  Plant response rating, Foxtail, Giant: 30
[8]; [17]
  Plant response rating, Foxtail, Giant: 90
[9]; [14]
  Plant response rating, Velvetleaf: 100
[9]; [15]
  Velvetleaf plant response rating: 100
[9]; [16]
  Plant response rating, Velvetleaf: 60
[9]; [17]
  Plant response rating, Velvetleaf: 100

## CCCCCCn1c(-c2ccccc2)ncc(C(=O)C2=C(O)CCCC2=O)c1=O [Compound 94]
[1]; [18]
  Plant response rating, Barley: 0
[1]; [10]
  Barley plant response rating (0 to 100 scale): 0
[1]; [19]
  Plant response rating, Barley: 5
[1]; [20]
  Plant response rating, Barley: 5
[2]; [18]
  Plant response rating, Chickweed: 95
[2]; [21]
  Chickweed plant response rating (0 to 100 scale): 100
[2]; [19]
  Plant response rating, Chickweed: 100
[2]; [20]
  Plant response rating, Chickweed: 100
[3]; [18]
  Plant response rating, Canarygrass: 0
[3]; [21]
  Canarygrass plant response rating (0 to 100 scale): 5
[3]; [19]
  Plant response rating, Canarygrass: 30
[3]; [20]
  Plant response rating, Canarygrass: 35
[4]; [18]
  Plant response rating, Windgrass: 0
[4]; [21]
  Windgrass plant response rating (0 to 100 scale): 40
[4]; [20]
  Plant response rating, Windgrass: 50
[5]; [14]
  Plant response rating, Crabgrass, Large: 80
[5]; [22]
  Plant response rating, Crabgrass, Large: 90
[5]; [16]
  Plant response rating, Crabgrass, Large: 30
[5]; [23]
  Plant response rating, Crabgrass, Large: 90
[6]; [14]
  Plant response rating, Wheat: 0
[6]; [22]
  Plant response rating, Wheat: 0
[6]; [16]
  Plant response rating, Wheat: 0
[6]; [23]
  Plant response rating, Wheat: 0
[7]; [14]
  Plant response rating, Morningglory: 100
[7]; [22]
  Plant response rating, Morningglory: 100
[7]; [16]
  Plant response rating, Morningglory: 10
[7]; [23]
  Plant response rating, Morningglory: 40
Corn (Zea mays); [14]
  Plant response rating, Corn: 0
Corn (Zea mays); [22]
  Plant response rating, Corn: 10
Corn (Zea mays); [16]
  Plant response rating, Corn: 0
Corn (Zea mays); [23]
  Plant response rating, Corn: 0
[8]; [14]
  Plant response rating, Foxtail, Giant: 30
[8]; [22]
  Plant response rating, Foxtail, Giant: 80
[8]; [16]
  Plant response rating, Foxtail, Giant: 0
[8]; [23]
  Plant response rating, Foxtail, Giant: 40
[9]; [14]
  Plant response rating, Velvetleaf: 100
[9]; [22]
  Plant response rating, Velvetleaf: 100
[9]; [16]
  Plant response rating, Velvetleaf: 40
[9]; [23]
  Plant response rating, Velvetleaf: 70
